Active and inactive are the calls of the source. Non-standard residues stand in square brackets, D forms with d. Residues, ends and D or L forms follow the SMILES beside them. ξ: configuration not given here. *: point of attachment. X18 = COC1=CC(=O)N(C(=O)C(O*)C(C)C)C1Cc1ccccc1; ξNMe2Val = CC(C)C(C(=O)*)N(C)C; NMeV = CN[CH](C(=O)O)C(C)C
Legend:
[1] = tested on: Escherichia coli; assay: microbe, parasite or virus in culture
[2] = viability of uninfected HEp-2 cells – cell-based, HTS, cytotoxicity control for RSV inhibitor project, dose response (AID 2410); assay type: functional; settings: human respiratory syncytial virus
[3] = target: Glucose-6-phosphate 1-dehydrogenase (Homo sapiens, UniProt P11413); assay: inhibition of Homo sapiens G6PD, dose series – biochemical, fluorescence, selectivity assay for P. falciparum G6PD inhibitor project, dose response (AID 504792); assay type: functional
[4] = target: T1, High affinity choline transporter 1 (Homo sapiens, UniProt Q9GZV3); assay: human choline transporter blockers, potency – cell-based, 5-point CRC, membrane potential dye, dose response (AID 504840); assay type: functional
T1 sequence (Q9GZV3 whole entry): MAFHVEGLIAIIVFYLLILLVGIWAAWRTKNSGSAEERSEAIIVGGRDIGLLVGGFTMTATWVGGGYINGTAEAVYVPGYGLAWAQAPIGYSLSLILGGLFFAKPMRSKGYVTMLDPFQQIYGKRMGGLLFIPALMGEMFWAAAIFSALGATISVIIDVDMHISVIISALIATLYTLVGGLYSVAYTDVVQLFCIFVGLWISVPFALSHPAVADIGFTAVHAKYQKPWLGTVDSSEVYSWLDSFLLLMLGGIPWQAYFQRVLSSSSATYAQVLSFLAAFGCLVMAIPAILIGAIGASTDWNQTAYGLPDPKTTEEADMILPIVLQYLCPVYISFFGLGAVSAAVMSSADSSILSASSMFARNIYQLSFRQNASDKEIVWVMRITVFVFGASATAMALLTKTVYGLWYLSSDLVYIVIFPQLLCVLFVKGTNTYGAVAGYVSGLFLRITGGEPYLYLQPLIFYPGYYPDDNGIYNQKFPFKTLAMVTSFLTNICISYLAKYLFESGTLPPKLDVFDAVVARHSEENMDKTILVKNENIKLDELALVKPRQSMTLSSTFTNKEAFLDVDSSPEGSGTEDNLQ

[5] = target: T2, Polyadenylate-binding protein 1 (Homo sapiens, UniProt P11940); assay: MLLE binding blockers, Cy5 peptide tracer – biochemical, fluorescence polarization, Cy5-PAM2 peptide, secondary, miRNA deadenylation inhibitor project, dose response (AID 602260); assay type: functional; settings: read-out: IC50_Mean
[6] = target: T2, Polyadenylate-binding protein 1; assay: MLLE domain peptide-binding blockers, IC50 – biochemical, fluorescence polarization, FITC-PAM2 peptide, dose response (AID 602259); assay type: functional; settings: read-out: IC50_Mean
[7] = target: T3, Replicative DNA helicase DnaB (Mycobacterium tuberculosis, UniProt P9WMR3); assay: DnaB intein splicing inhibitors, dose response, biochemical, cell-free fluorescence (AID 449749); assay type: functional
T3 sequence (P9WMR3 whole entry): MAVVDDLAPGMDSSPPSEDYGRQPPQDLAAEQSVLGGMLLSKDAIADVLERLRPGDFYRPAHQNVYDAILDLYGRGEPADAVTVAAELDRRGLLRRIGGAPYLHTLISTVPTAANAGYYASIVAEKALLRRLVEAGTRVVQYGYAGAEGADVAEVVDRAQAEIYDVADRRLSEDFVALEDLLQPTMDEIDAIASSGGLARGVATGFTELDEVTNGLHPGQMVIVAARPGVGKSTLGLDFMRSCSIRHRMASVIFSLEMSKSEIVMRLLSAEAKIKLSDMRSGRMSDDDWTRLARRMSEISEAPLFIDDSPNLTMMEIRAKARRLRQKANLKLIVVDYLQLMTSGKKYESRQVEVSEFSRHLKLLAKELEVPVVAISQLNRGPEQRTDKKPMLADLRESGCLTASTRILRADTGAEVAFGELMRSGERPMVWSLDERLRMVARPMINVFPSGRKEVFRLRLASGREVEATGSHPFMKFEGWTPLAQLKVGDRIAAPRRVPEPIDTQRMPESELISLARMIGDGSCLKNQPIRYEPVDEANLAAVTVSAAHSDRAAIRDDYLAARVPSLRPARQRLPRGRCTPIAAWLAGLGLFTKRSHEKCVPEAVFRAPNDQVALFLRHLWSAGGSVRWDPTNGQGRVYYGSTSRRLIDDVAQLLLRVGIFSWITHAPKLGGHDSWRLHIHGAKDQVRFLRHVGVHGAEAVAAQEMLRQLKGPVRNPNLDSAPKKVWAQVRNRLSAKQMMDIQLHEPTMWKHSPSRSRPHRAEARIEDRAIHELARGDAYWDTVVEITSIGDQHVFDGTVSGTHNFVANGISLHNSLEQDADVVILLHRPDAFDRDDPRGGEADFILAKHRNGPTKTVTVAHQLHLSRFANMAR

[8] = target: T4, Protein RecA (Mycobacterium tuberculosis, UniProt P9WHJ3); assay: Fluorescence Cell-Free Homogeneous Dose Retest to Identify Inhibitors of RecA-Intein Splicing Activity. [Related pubchem assays (depositor defined):AID2097, AID2223, AID489010, AID492950]; assay type: functional
T4 sequence (P9WHJ3 whole entry): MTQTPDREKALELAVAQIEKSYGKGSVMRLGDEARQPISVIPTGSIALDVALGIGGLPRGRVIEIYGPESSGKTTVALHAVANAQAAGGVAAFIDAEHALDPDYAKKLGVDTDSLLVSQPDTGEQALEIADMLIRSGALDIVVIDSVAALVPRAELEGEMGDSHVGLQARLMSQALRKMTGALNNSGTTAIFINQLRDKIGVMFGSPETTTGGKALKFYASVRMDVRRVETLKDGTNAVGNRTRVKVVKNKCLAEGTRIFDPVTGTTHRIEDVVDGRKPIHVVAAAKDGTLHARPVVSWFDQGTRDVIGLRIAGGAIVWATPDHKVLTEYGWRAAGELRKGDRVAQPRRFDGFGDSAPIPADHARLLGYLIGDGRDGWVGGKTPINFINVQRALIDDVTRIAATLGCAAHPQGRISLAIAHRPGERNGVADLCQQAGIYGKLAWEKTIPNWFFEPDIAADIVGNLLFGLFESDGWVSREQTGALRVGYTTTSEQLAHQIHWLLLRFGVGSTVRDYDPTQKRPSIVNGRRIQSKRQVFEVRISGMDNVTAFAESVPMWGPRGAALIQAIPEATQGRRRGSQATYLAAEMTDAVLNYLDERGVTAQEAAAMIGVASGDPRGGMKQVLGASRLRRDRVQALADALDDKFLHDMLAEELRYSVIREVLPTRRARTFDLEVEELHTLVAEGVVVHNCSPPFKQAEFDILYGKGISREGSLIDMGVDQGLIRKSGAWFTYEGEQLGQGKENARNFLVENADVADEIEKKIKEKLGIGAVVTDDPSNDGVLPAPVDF

[9] = target: Genome polyprotein (dengue virus type 2, UniProt P29990); assay: flavivirus cap methylation enzyme inhibition – biochemical, confirmation dose response, primary screen (AID 588689); assay type: functional
[10] = tested on: P388/ADR; assay: cells; assay type: functional; settings: Mus musculus
[11] = tested on: SN12K1; assay: cells; assay type: functional; settings: Homo sapiens
[12] = tested on: P388; assay: cells; assay type: functional; settings: Mus musculus
[13] = reduction of Shn3 3'UTR-driven luciferase in osteoblasts – cell-based, Clone20 osteoblasts, firefly luciferase, cherry-picked, dose response (AID 624132); assay type: functional;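 further: firefly luciferase luminescence from reporter carrying the Shn3 3'UTR in osteoblasts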
[14] = loss of viability in HepG2 cells – cell-based, CellTiter-Glo, cherry-picked, cytotoxicity control for Shn3 inhibitor project, dose response (AID 624134); assay type: functional
[15] = non-specific 3'UTR reporter inhibition in Clone20-Shn3RL – cell-based, Renilla luciferase, cherry-picked, counter-screen for Shn3 inhibitor project, dose response (AID 624133); assay type: functional
[16] = viability of PTEN-deleted HCT116 cells – cell-based, HCT116 PTEN knockout, dose response (AID 1047); assay type: functional;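 further: HCT116 colon tumor cells with PTEN knocked out; cells exposed to compound for 60 hours before readout; potency for loss of cell viability measured by luminescence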
[17] = viability of HCT116 lacking mutant beta-catenin – cell-based, human colon tumor, dose response (AID 1045); assay type: functional;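 further: HCT116 colon tumor cells with beta catenin knocked out; cells exposed to compound for 60 hours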
[18] = target: T5, Carboxy-terminal domain RNA polymerase II polypeptide A small phosphatase 1 (Homo sapiens, UniProt Q9GZU7); assay: CTDSP1 inhibitors, concentration-response, biochemical, absorbance readout, ultra-high-throughput screen actives (AID 540297); assay type: functional
T5 sequence (Q9GZU7 whole entry): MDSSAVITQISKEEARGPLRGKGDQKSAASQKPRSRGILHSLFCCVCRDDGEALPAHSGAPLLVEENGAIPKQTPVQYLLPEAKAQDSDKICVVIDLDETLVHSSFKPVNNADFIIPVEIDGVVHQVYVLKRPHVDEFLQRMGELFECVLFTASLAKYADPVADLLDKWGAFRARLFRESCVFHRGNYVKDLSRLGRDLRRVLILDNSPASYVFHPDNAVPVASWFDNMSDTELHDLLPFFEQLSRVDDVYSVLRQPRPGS

[19] = target: T6, Low molecular weight phosphotyrosine protein phosphatase (Homo sapiens, UniProt P24666); assay type: functional; settings: read-out: IC50_Mean;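 further: Dose-response confirmation assay measuring inhibition of LMPTP enzyme activity by fluorescence intensity read-out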
T6 sequence (P24666 whole entry): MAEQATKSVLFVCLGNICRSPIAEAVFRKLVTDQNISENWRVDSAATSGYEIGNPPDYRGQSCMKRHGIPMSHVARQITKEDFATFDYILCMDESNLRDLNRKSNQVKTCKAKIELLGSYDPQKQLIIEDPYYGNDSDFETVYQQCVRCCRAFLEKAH

[20] = cells; assay type: functional

Chain of Glucose-6-phosphate 1-dehydrogenase (P11413 whole entry): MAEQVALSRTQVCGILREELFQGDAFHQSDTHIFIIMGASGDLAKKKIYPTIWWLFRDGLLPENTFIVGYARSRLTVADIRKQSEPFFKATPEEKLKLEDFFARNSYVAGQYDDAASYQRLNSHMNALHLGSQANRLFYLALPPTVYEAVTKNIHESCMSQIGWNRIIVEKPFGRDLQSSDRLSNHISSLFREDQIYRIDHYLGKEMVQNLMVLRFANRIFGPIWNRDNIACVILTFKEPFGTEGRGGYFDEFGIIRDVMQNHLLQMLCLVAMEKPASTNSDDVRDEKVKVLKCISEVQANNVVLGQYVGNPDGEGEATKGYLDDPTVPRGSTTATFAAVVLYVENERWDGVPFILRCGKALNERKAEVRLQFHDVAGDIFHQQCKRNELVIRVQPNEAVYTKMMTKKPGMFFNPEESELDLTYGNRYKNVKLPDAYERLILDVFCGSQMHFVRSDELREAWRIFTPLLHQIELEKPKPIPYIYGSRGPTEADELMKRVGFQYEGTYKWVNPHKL
T2 sequence (P11940 whole entry, the tested form may be a part): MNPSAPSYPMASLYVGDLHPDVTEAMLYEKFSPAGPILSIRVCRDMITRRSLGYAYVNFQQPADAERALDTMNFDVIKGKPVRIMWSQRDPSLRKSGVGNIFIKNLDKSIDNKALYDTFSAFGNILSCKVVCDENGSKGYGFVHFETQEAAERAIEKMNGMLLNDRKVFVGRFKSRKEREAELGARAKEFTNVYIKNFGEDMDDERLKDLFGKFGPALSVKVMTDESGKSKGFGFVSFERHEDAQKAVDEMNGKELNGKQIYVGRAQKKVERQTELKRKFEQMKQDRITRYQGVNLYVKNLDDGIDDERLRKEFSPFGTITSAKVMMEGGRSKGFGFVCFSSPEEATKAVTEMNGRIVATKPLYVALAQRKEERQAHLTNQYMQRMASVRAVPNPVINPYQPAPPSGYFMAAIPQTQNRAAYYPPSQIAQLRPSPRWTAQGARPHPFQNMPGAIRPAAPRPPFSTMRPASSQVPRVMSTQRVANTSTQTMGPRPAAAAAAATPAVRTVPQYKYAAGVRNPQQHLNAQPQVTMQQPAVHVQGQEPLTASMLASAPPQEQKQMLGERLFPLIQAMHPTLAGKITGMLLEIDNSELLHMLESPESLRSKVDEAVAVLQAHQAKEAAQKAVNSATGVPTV
Chain of Genome polyprotein (P29990 2492-3391 limits assumed): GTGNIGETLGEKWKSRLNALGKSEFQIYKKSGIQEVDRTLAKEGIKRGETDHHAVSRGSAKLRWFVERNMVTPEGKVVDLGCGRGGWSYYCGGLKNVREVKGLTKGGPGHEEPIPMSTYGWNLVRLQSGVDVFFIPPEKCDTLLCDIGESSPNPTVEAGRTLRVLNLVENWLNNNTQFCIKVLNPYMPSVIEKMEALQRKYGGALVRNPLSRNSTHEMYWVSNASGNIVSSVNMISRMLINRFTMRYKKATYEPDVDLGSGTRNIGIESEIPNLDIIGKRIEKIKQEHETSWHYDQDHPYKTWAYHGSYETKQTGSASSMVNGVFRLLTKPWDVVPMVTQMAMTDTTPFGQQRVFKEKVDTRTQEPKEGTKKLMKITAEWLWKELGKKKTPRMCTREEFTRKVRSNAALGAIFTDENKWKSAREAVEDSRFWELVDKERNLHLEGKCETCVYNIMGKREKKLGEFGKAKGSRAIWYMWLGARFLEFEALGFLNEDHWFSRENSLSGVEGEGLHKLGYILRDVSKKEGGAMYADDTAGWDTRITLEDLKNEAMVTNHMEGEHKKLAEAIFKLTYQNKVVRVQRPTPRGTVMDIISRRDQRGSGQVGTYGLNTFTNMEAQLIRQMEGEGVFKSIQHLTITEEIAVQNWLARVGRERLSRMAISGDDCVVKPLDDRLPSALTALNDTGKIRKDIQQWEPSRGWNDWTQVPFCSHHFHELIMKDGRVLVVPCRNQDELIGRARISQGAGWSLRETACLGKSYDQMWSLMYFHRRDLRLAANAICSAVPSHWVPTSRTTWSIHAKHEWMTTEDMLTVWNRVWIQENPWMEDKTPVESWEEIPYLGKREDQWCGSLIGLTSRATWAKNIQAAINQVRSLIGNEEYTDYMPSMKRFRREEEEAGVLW

Cc1nn(Cc2ccccc2Cl)c(C)c1NC(=O)c1ccn(C)n1
AC50 [1]: 19.1 µM (active)

Cc1ccc(NC(=O)c2cc(C)n(-c3ccccc3)c2C)cc1
CC50 [2]: 16.9 µM (active) | IC50 [3]: > 80 µM (inactive)

O=C(NC1CCCCC1)C(c1ccc2ncccc2c1)N(Cc1ccc2c(c1)OCO2)C(=O)c1cccs1 (stereo not given)
IC50 [4]: 16.5 µM (active)

CC(=O)NS(=O)(=O)c1ccc(NC(=O)c2cc(-c3cccs3)nc3ccccc23)cc1
AC50 [1]: 36.4 µM (active)

N=C(N)NC(=S)Nc1ccc(Cl)cc1
IC50 [5]: > 66 µM (inactive) | IC50 [6]: > 66 µM (inactive)

CCNC(=O)c1ccc(NS(=O)(=O)c2ccccc2)cc1
AC50 [1]: 27.4 µM (active)

O=C(O)c1ccccc1Nc1cc(Cl)c2nonc2c1[N+](=O)[O-]
AC50 [7]: 0.0492 µM (active) | EC50 [8]: 1.94 µM (active) | IC50 [5]: > 66 µM (inactive) | IC50 [6]: > 66 µM (inactive)

Cc1ccc(C(=O)N/C(=C/c2ccco2)C(=O)Nc2cccc(C)c2)cc1
IC50 [4]: 13.7 µM (active)

COC(=O)CCC(=O)OC1(C)C(=O)C2=CN(c3ccc(OC)cc3)C(c3ccc(OC)cc3)=CC2=C(Br)C1=O (stereo not given)
IC50 [3]: 30.1 µM (inactive)

O=C(COC(=O)CCCSc1nc2ccccc2[nH]1)NC(=O)NC1CCCC1
IC50 [4]: 7.24 µM (active)

CC1=C(C(=O)O)N2C(=O)C(NC(=O)c3ccn(C)n3)C2SC1 (stereo not given)
IC50 [5]: > 66 µM (inactive) | IC50 [6]: > 66 µM (inactive)

Cc1ccc(C(=O)NCC(=O)NCC(=O)OCC(=O)c2ccc([N+](=O)[O-])cc2)cc1
IC50 [3]: > 80 µM (inactive)

CC1CN(C(=S)c2cccc([N+](=O)[O-])c2)CC(C)O1 (stereo not given)
IC50 [5]: > 66 µM (inactive) | IC50 [6]: > 66 µM (inactive)

Cc1cc(O)c(C(C)C)cc1N=Cc1ccccc1[N+](=O)[O-]
IC50 [3]: > 80 µM (inactive) | IC50 [9]: > 100 µM (active)

COc1cc(SC)ccc1C(=O)OCC(=O)NC(=O)NC(C)C
AC50 [1]: 28.2 µM (active)

CC1C(=O)OC2CC[N+]3(CC(=O)c4ccc(Br)cc4)CC=C(COC(=O)C(C)(O)C1(C)O)C23 (stereo not given)
GI50 [10]: > 375 µM (inactive) | GI50 [11]: > 375 µM (inactive) | GI50 [12]: > 174 µM (inactive)

Nc1nc(=O)[nH][nH]1
GI50 [10]: > 100 µM (inactive) | GI50 [11]: > 100 µM (inactive) | GI50 [12]: > 100 µM (inactive)

N[C@H](C(=O)O)[C@H]1ON=C(Cl)[C@@H]1O
GI50 [10]: 2.23 µM (inactive) | GI50 [11]: 1.07 µM (active) | GI50 [12]: 2.17 µM (inactive)

COc1cccc(CN(C)C(=O)c2cccc(S(=O)(=O)N3CCN(c4ccccc4)CC3)c2)c1
AC50 [13]: 64.1 µM (active) | AC50 [14]: > 70 µM (inactive) | AC50 [15]: 12.2 µM (active)

O=C1NC(=O)C2(CCc3ccc(N(CCCl)CCCl)cc32)N1 (stereo not given)
GI50 [10]: 2.1 µM (inactive) | GI50 [11]: 15 µM (inactive) | GI50 [12]: 1.35 µM (inactive)

CC1C(O)[C@@]2(OC[C@@]34C(=O)CC5(O)[C@H](CCC6Cc7nc8c(nc7C[C@]65C)CC5CC[C@@H]6C7=C[C@H]9O[C@@]%10(O[C@@](C)(CO)C[C@@H]%10O)C(C)[C@@]9(O)[C@]7(C)[C@@H](O)CC6[C@]5(C)C8)C3=CC[C@H]4C2C)OC1(C)C (stereo not given in full)
GI50 [10]: 0.00203 µM (active) | GI50 [11]: > 3.55 µM (inactive) | GI50 [12]: < 0.000355 µM (active)

O=C(N/N=C/c1cccc([N+](=O)[O-])c1)c1cc2c(ccc3ccccc32)o1
EC50 [16]: 52.6 µM (active) | EC50 [17]: 148 µM (active) | IC50 [18]: 3.91 µM (active) | IC50 [19]: 4.06 µM (active)

CC(=O)N1CCN(c2cc3c(cc2F)c(=O)c(C(=O)O)cn3C2CC2)CC1
IC50 [20]: 2.11 µM (active) | AC50 [1]: 1.06 µM (active)

COC1=CC(=O)N(C(=O)C(OC(=O)C2CCCN2C(=O)C2CCCN2C(=O)C(C(C)C)N(C)C(=O)C(NC(=O)C(C(C)C)N(C)C)C(C)C)C(C)C)C1Cc1ccccc1 (stereo not given) (ξNMe2Val-V[NMeV]PP-X18; configuration not given here)
GI50 [10]: 0.00748 µM (active) | GI50 [11]: 0.0004 µM (active) | GI50 [12]: 0.0004 µM (active)

— ChEMBL document CHEMBL1201862, “PubChem BioAssay data set” (2004)
